This note sets out measurements from US7935847B2, “Nitroxyl ion source with second order reaction nitroxyl release” (Duke University, priority 2007, dated 2011).

The structures appear in SMILES notation. “Also recorded” adds a separate entry of the source.

A short description of series [1]: Isolability / rate of nitroxyl release on attempted synthesis. It is filed as physicochemical. The conditions noted are these: electron withdrawing group p-nitrophenyl; nitrosation of 4g with NaNO2 in glacial acetic acid. As for the experimental part: It has been found herein that the rate of release is so fast, when the electron withdrawing group on the carbon acid is p-nitrophenyl, e.g., when the compound is (I) below.
The same would be true where the electron withdrawing group is nitro. Thus the compound of the invention excludes the cases where the electron withdrawing group is nitro or p-nitrophenyl.
A freshly prepared solution of aqueous 10M NaNO2 (0.59 ml, 5.9 mmol) is added dropwise with stirring to a cooled (ice/H2O bath) solution of (1.22 g, 4.9 mmol) 4g in glacial acetic acid (1.5 ml). Stirring is continued for 1 hour. The reaction mixture is diluted with the water (5 mL) and precipitates are filtered off at vacuum. The filter cake is washed with water (20 ml), hexane (20 ml) and dried under vacuum to give

Series [2] concerns ischemic reperfusion injury. Nature of the series: Prevention of ischemic reperfusion injury (Working Example V). Format: in vivo, human. Particulars: person, heart attack, bypass surgery; intravenously, blood concentration of 10 nanomolar from 15 minutes before reperfusion up to 20 minutes thereafter. Here is the method: A person presents with a heart attack. Blockage is treated with bypass surgery. The patient is give compound (II) intravenously to maintain a blood concentration of 10 nanomolar 15 minutes before reperfusion up to 20 minutes thereafter.

For series [3], the system named is congestive heart failure and a dilated cardiomyopathy. Put plainly: Treatment of heart failure (Working Example IV). Format: in vivo, human. Particulars: person with congestive heart failure and dilated cardiomyopathy; intravenously, blood concentration of 10 nanomolar. Here is the method: A person with congestive heart failure and a dilated cardiomyopathy is administered compound (II) intravenously (to obtain a blood concentration of 10 nanomolar). Their ejection fraction improves, their blood pressure decreases, and […] pO2 improves on room air. Symptoms of angina also decrease.

As for `CC(=O)C(Cc1ccc([N+](=O)[O-])cc1)(N=O)C(C)=O` [Compound (I)], the “stability / isolability (rate of nitroxyl release)” value in series [1] was “cannot be isolated; also recorded: couldn't be isolated”.

Take `CC(=O)C(Cc1ccc(Br)cc1)(N=O)C(C)=O` [Compound (II), 3-(4-bromobenzyl)-3-nitroso-2,4-pentanedione]: the ischemic reperfusion injury result in series [2] is given as “does not occur”. Moreover, in series [3], the blood pressure result was “decreases”, the ejection fraction entry is recorded as “improves”, the “pO2 on room air” value was “improves” and the symptoms of angina entry was “decrease”.
